From patent publication US6410245B1, “Compositions and methods for detecting ligand-dependent nuclear receptor and coactivator interactions” (priority 1998, dated 2002)

Test system: VP16TRα, Gal4-SRC-1, and UAS-TK-luciferase
Assay: positive two-hybrid system, luciferase reporter, VP16TRα and Gal4-SRC-1
Format: cell-based
Conditions: CHO cells triple transfected; dose-response curve; FIG. 8
Text: “Receptor” indicates LBD-TRX, with the LBD exemplified by a genereic nuclear receptor (NR) LBD with bound ligand (L), and the TRX domain represented by the VP16 acidic activation domain (VP16). “Coactivator” indicates a CA-TRX, with exemplary CA species being a portion of the SRC-1 protein, a portion of the CBP protein, or isolated LCD sequences from those proteins, the TRX domain is exemplified as the Gal4 DNA binding domain (DBD). “Corepressor” indicates a CR-TRX, with exemplary CR species being the interacting domains (ID1 or ID2) from SMRT or NcoR fused to the TRX domain as exemplified by Gal4 DNA binding domain (DBD). The reporter polynucleotide is exemplified as a UAS-TK-luciferase reporter containing binding sites for Gal4 DBD. CHO cells were triple transfected with these constructs and hormone added.
“Receptor” indicates LBD-TRX, with the LBD exemplified by a genereic nuclear receptor (NR) LBD with bound ligand (L), and the TRX domain represented by the VP16 acidic activation domain (VP16). “Coactivator” indicates a CA-TRX, with exemplary CA species being a portion of the SRC-1 protein, a portion of the CBP protein, or isolated LCD sequences from those proteins, the TRX domain is exemplified as the Gal4 DNA binding domain (DBD). […]

reporter (luciferase) response: dose-dependent
Structure (SMILES): N[C@@H](Cc1cc(I)c(Oc2ccc(O)c(I)c2)c(I)c1)C(=O)O [T3, triiodothyronine]
